Experimental data as given in ChEMBL document CHEMBL4184135, “Waspergillamide A, a Nitro depsi-Tetrapeptide Diketopiperazine from an Australian Mud Dauber Wasp-Associated Aspergillus sp. (CMB-W031)” (J Nat Prod, 2017).
The source made the active and inactive calls.

Legend:
Staphylococcus aureus = test: Antimicrobial activity against Staphylococcus aureus ATCC 25923 assessed as inhibition of microbial growth at 0.125 to 32 ug/mL incubated for 24 hrs by broth micro-dilution method; format: functional, organism-based
Escherichia coli = test: Antimicrobial activity against Escherichia coli ATCC 25922 assessed as inhibition of microbial growth at 0.125 to 32 ug/mL incubated for 24 hrs by broth micro-dilution method; format: functional, organism-based
Pseudomonas aeruginosa = test: Antimicrobial activity against Pseudomonas aeruginosa ATCC 27853 assessed as inhibition of microbial growth at 0.125 to 32 ug/mL incubated for 24 hrs by broth micro-dilution method; format: functional, organism-based
SW-620 = test: Cytotoxicity against human SW620 cells assessed as inhibition of cell growth at 10 nM to 30 uM incubated for 72 hrs by MTT assay; format: functional, cell-based
NCI-H460 = test: Cytotoxicity against human NCI-H460 cells assessed as inhibition of cell growth at 10 nM to 30 uM incubated for 72 hrs by MTT assay; format: functional, cell-based
KB 3-1 = test: Cytotoxicity against human KB-3-1 cells assessed as inhibition of cell growth at 10 nM to 30 uM incubated for 72 hrs by MTT assay; format: functional, cell-based

Measured: growth inhibition (GI)

CC(C)/C=C1\NC(=O)[C@@H](C(C)(C)OC(=O)CNC(=O)c2ccc([N+](=O)[O-])cc2)NC1=O
inactive: all assays above
